Earlier results on ten compounds are cited in patent US11293039B2, “Method for producing organic acid salts from fermentation broth” (METABOLIC EXPLORER, priority 2017, dated 2022).

The pKa is the pH at which an ionisable group is half protonated.

For this data set the following is noted: dilute aqueous solution, 25 °C.
Turning to `CC(Cl)C(=O)O` (stereo not shown) [2-Chloropropanoic acid], the pKa is recorded as 2.83.

In the case of `O=C(O)CCCl` [3-Chloropropanoic acid], the pKa was 3.98.

Regarding `CC(CC(=O)O)CC(=O)O` [3-Methylglutaric acid], the pKa was 4.24.

For `N#CCCCC(=O)O` [4-Cyanobutanoic acid], the pKa is 2.42.

With `N#CCC(=O)O` [Cyanoacetic acid], the pKa was 2.45.

For `O=C(O)C(O)CO` (stereo not shown) [Glyceric acid], the pKa was 3.52.

In the case of `CC(C(=O)O)C(=O)O` [Methymalonic acid], the pKa was 3.07.

For the compound `O=C(O)CCCCCCC(=O)O` [Octanedioic acid], the pKa is on record as 4.52.

For the compound `O=C(O)[C@@H]1CCCCN1` [l-Pipecolic acid], the pKa was 2.28.

For the compound Alloxanic acid, the pKa is reported as 6.64.
